According to patent US20240173289A1, “USE OF OXYMETHYL-MODIFIED DERIVATIVE OF QUERCETIN IN PREPARATION OF DRUG FOR INHIBITING TUMOR CELL PROLIFERATION” (ZHEJIANG UNIVERSITY, priority 2021, published 2024):
≈ marks a conversion by molar mass, not a printed value. Where two headings read alike, the source gives them in different places.

How the values were obtained:
[1] = tested on: Osteosarcoma cell line 143B; experiment: in vitro cell proliferation inhibition (CCK-8); format: cell-based; conditions: 48 h incubation
From the text: (§1) Osteosarcoma cell line 143B, HOS, and U2, liver cancer cell line HepG2, breast cancer cell line MDA-MB-231 and T47D, gastric cancer cell line AGS, BGC-823, and SGC-7901, cervical cancer cells Hela, lung cancer cells A549, intestinal cancer cells Caco2, mouse glioma cells BV-2, human prostate cancer cells PC3, human thyroid cancer cell line BCPAP, human normal liver cell line L02, human normal gastric cell line GES, human umbilical vein epithelial cells HUVEC, and human embryonic lung fibroblasts WI-38 were cultured in a DMEM medium containing 10% fetal bovine serum and 1×HEPES in a humid incubator (37° C., 5% CO2). The cells were passaged with trypsin-EDTA in logarithmic phase. Certain density of cells (AGS, T47D, Caco2, BCPAP, GES, HUVEC 1×10^5 cells per well; HepG2, MDA-MB-231, BGC-823, A549, PC3, L02 8×10^4 cells per well; 143B, HOS, U2, SGC-7901, Hela, BV-2, 5×10^4 cells per well; WI-38, 3×10^5 cells per well) were inoculated in a 96-well plate, and cultured for 24 h before treatment. After replacing a fresh medium, 12.5 mg/L to 400 mg/L of quercetin, quercetin 3-methyl ether, and quercetin 3,3′-dimethyl ether dissolved with DMSO were added into the medium (a final volume ratio was 0.1%, and the DMSO was used as a […]). After incubation for 48 h, a complete medium was replaced with a serum-free medium containing 10% CCK-8 reagent. The absorbance at 450 nm and 620 nm was measured separately after the cells were incubated for 1 h. Each experiment was repeated three times independently.
as §1, with “400 mg/L,” for “400 mg/L”, “of” for “of quercetin, quercetin 3-methyl ether, and”, “DMSO was” for “DMSO were”, “into a” for “into the”

[2] = tested on: Osteosarcoma cell line HOS; experiment: in vitro cell proliferation inhibition (CCK-8); format: cell-based; conditions: 48 h incubation
From the text: as §1
as §1, with “400 mg/L,” for “400 mg/L”, “of” for “of quercetin, quercetin 3-methyl ether, and”, “DMSO was” for “DMSO were”, “into a” for “into the”

[3] = tested on: Osteosarcoma cell line U2; experiment: in vitro cell proliferation inhibition (CCK-8); format: cell-based; conditions: 48 h incubation
From the text: as §1
as §1, with “400 mg/L,” for “400 mg/L”, “of” for “of quercetin, quercetin 3-methyl ether, and”, “DMSO was” for “DMSO were”, “into a” for “into the”

[4] = tested on: breast cancer cell line MDA-MB-231; experiment: in vitro cell proliferation inhibition (CCK-8); format: cell-based; conditions: 48 h incubation
From the text: as §1
as §1, with “400 mg/L,” for “400 mg/L”, “of” for “of quercetin, quercetin 3-methyl ether, and”, “DMSO was” for “DMSO were”, “into a” for “into the”

[5] = tested on: breast cancer cell line T47D; experiment: in vitro cell proliferation inhibition (CCK-8); format: cell-based; conditions: 48 h incubation
From the text: as §1
as §1, with “400 mg/L,” for “400 mg/L”, “of” for “of quercetin, quercetin 3-methyl ether, and”, “DMSO was” for “DMSO were”, “into a” for “into the”

[6] = tested on: cervical cancer cells Hela; experiment: in vitro cell proliferation inhibition (CCK-8); format: cell-based; conditions: 48 h incubation
From the text: as §1
as §1, with “400 mg/L,” for “400 mg/L”, “of” for “of quercetin, quercetin 3-methyl ether, and”, “DMSO was” for “DMSO were”, “into a” for “into the”

[7] = tested on: gastric cancer cell line AGS; experiment: in vitro cell proliferation inhibition (CCK-8); format: cell-based; conditions: 48 h incubation
From the text: as §1
as §1, with “400 mg/L,” for “400 mg/L”, “of” for “of quercetin, quercetin 3-methyl ether, and”, “DMSO was” for “DMSO were”, “into a” for “into the”

[8] = tested on: gastric cancer cell line BGC-823; experiment: in vitro cell proliferation inhibition (CCK-8); format: cell-based
From the text: as §1
as §1, with “400 mg/L,” for “400 mg/L”, “of” for “of quercetin, quercetin 3-methyl ether, and”, “DMSO was” for “DMSO were”, “into a” for “into the”

[9] = tested on: gastric cancer cell line SGC-7901; experiment: in vitro cell proliferation inhibition (CCK-8); format: cell-based
From the text: as §1
as §1, with “400 mg/L,” for “400 mg/L”, “of” for “of quercetin, quercetin 3-methyl ether, and”, “DMSO was” for “DMSO were”, “into a” for “into the”

[10] = tested on: human prostate cancer cells PC3; experiment: in vitro cell proliferation inhibition (CCK-8); format: cell-based; conditions: 48 h incubation
From the text: as §1
as §1, with “400 mg/L,” for “400 mg/L”, “of” for “of quercetin, quercetin 3-methyl ether, and”, “DMSO was” for “DMSO were”, “into a” for “into the”

[11] = tested on: human thyroid cancer cell line BCPAP; experiment: in vitro cell proliferation inhibition (CCK-8); format: cell-based; conditions: 48 h incubation
From the text: as §1
as §1, with “400 mg/L,” for “400 mg/L”, “of” for “of quercetin, quercetin 3-methyl ether, and”, “DMSO was” for “DMSO were”, “into a” for “into the”

[12] = tested on: intestinal cancer cells Caco2; experiment: in vitro cell proliferation inhibition (CCK-8); format: cell-based
From the text: as §1
as §1, with “400 mg/L,” for “400 mg/L”, “of” for “of quercetin, quercetin 3-methyl ether, and”, “DMSO was” for “DMSO were”, “into a” for “into the”

[13] = tested on: liver cancer cell line HepG2; experiment: in vitro cell proliferation inhibition (CCK-8); format: cell-based; conditions: 48 h incubation
From the text: as §1
as §1, with “400 mg/L,” for “400 mg/L”, “of” for “of quercetin, quercetin 3-methyl ether, and”, “DMSO was” for “DMSO were”, “into a” for “into the”

[14] = tested on: lung cancer cells A549; experiment: in vitro cell proliferation inhibition (CCK-8); format: cell-based; conditions: 48 h incubation
From the text: as §1
as §1, with “400 mg/L,” for “400 mg/L”, “of” for “of quercetin, quercetin 3-methyl ether, and”, “DMSO was” for “DMSO were”, “into a” for “into the”

[15] = tested on: mouse glioma cells BV-2; experiment: in vitro cell proliferation inhibition (CCK-8); format: cell-based; conditions: BV2, 48 h incubation
From the text: as §1
as §1, with “400 mg/L,” for “400 mg/L”, “of” for “of quercetin, quercetin 3-methyl ether, and”, “DMSO was” for “DMSO were”, “into a” for “into the”

[16] = tested on: HepG2 transplanted tumors; experiment: proliferation of HepG2 transplanted tumors in nude mice in vivo; set-up: species or system BALB/c nude mice; conditions: 10 mg/kg bw·d intraperitoneal; day 12
Protocol: BALB/c nude mice (5 to 6 weeks old), weighing 19 g to 22 g, were purchased from Shanghai Experimental Animal Center, Chinese Academy of Sciences. HepG2 cells were collected in a serum-free DMEM medium to make a cell suspension, and then the cell suspension was injected into an underarm area of each mouse, approximately 2.0×10^6 cells, one site per mouse. All mice were bred in the Experimental Animal Center of Zhejiang University, under the environment of 23° C. to 25° C., humidity 50% to 60%, and cycle of 12 h light illumination/dark 12 h. After tumor formation, the mice were randomly divided into 3 groups with 7 mice in each group. The model group was given saline by intraperitoneal injection; the positive drug group was given tegafur at 10 mg/kg bw·d by intraperitoneal injection; the treatment group was intraperitoneally injected with the quercetin 3,3′-dimethyl ether at 50 mg/kg bw·d. According to the change of tumor volume, after the tumor formed, intraperitoneal injection was conducted every 1 d to 2 d, the tumor volume was measured, and the body weight of the mice was weighed. When there was a significant difference in tumor volume between different treatment groups, the mice were sacrificed by cervical dislocation, and the tumor tissue was carefully peeled off, weighed, and calculated. The formulas were: tumor formation rate (%)=(number of tumor-forming mice in treatment group/number of tumor-forming mice in inoculation group)×100; tumor inhibition rate (%)=(average tumor weight in control group (g)−average tumor weight in administration group (g))/average tumor weight in control group (g)×100. Serum, liver, spleen, and kidney were collected and weighed.

## COc1c(-c2ccc(O)c(O)c2)oc2cc(O)cc(O)c2c1=O [Quercetin 3-methyl ether, quercetin 3-methyl ether]
[1]
  IC50: 210.34 mg/L (≈ 665 µM)
[2]
  IC50: 130.84 mg/L (≈ 414 µM)
[3]
  IC50: 377.08 mg/L (≈ 1190 µM)
[4]
  IC50: 92.14 mg/L (≈ 291 µM)
[5]
  IC50: 154.72 mg/L (≈ 489 µM)
[6]
  IC50: 82.34 mg/L (≈ 260 µM)
[7]
  IC50: 117.04 mg/L (≈ 370 µM)
[8]; BGC823, 48 h incubation
  IC50: 192.55 mg/L (≈ 609 µM)
[9]; SGC7901, 48 h incubation
  IC50: 123.94 mg/L (≈ 392 µM)
[10]
  IC50: 368.40 mg/L (≈ 1160 µM)
[11]
  IC50: 157.67 mg/L (≈ 499 µM)
[12]; 48 h incubation
  IC50: 215.61 mg/L (≈ 682 µM)
[13]
  IC50: 58.45 mg/L (≈ 185 µM)
[14]
  IC50: 252.27 mg/L (≈ 798 µM)
[15]
  IC50: 288.00 mg/L (≈ 911 µM)

## O=c1c(O)c(-c2ccc(O)c(O)c2)oc2cc(O)cc(O)c12 [Quercetin, quercetin]
[1]; Homo sapiens, read-out: IC50
  IC50: > 400 mg/L
[2]; read-out: IC50
  IC50: > 400 mg/L
[3]; read-out: IC50
  IC50: > 400 mg/L
[4]; Homo sapiens, read-out: IC50
  IC50: 331 mg/L (≈ 1090 µM)
[5]; Homo sapiens, read-out: IC50
  IC50: > 400 mg/L
[6]; Homo sapiens, read-out: IC50
  IC50: 196 mg/L (≈ 648 µM)
[7]; read-out: IC50
  IC50: 329 mg/L (≈ 1090 µM)
[8]; Homo sapiens, BGC-823, BGC823, 48 h incubation, read-out: IC50
  IC50: > 400 mg/L
[9]; Homo sapiens, SGC-7901, SGC7901, 48 h incubation, read-out: IC50
  IC50: > 400 mg/L
[10]; Homo sapiens, read-out: IC50
  IC50: > 400 mg/L
[11]; Homo sapiens, read-out: IC50
  IC50: 391 mg/L (≈ 1290 µM)
[12]; Homo sapiens, Caco-2, 48 h incubation, read-out: IC50
  IC50: > 400 mg/L
[13]; Homo sapiens, read-out: IC50
  IC50: 155 mg/L (≈ 513 µM)
[14]; Homo sapiens, read-out: IC50
  IC50: > 400 mg/L
[15]; Mus musculus, Glioma cell, read-out: IC50
  IC50: > 400 mg/L

## O=c1[nH]c(=O)n(C2CCCO2)cc1F (stereo not shown) [tegafur, reference compound]
[16]
  mortality of the mice: all dead
